Results reported in EP1311531B1, “STEROID DERIVED ANTIBIOTICS” (Brigham Young University, priority 2000, dated 2002).
Converted amounts (≈) assume the structure as drawn. Like-named read-outs stand apart in the source and are kept apart here.

Legend:
[1] = system: Candida albicans ATCC 90028; assay: MIC and MBC measurement; assay type: cell-based; settings: ATCC90028, Table 10
Procedure: (§1) General: Microorganisms. Reference strains were purchased from the American Type Culture Collection (Rockville, MD) or Bactrol disks from Difeo Laboratories (Detroit, MI). […] Bacterial strains were maintained on Mueller-Hinton agar plates, and Candida albicans was maintained on Sabouraud Dextrose agar plates.
(§2) Aliquots (20 mL) of the homogeneous solution were then poured in sterile plastic petri dishes (100 x 15 mm, Fisher Scientific). Solutions of compounds were made by dissolving the HCl salt of the respective compound into an appropriate amount of deionized and sterilized water followed by microfiltration.
(§3) Aliquots of 1 mL of the suspension were added to test tubes containing 1 mL TSB and incrementally varied concentrations of cholic acid derivatives and/or erythromycin or novobiocin. […] Additionally, an alliquot from each of the samples showing no measurable turbidity was subcultured on TSA plates (alliquots were diluted to provide fewer than 300 CFU). Colonies that grew on the subculture after overnight incubation were counted and the number of CFU/mL in the samples were calculated. The calculated values were compared to the number of CFU/mL in the original inoculum.

[2] = system: Salmonella typhimurium ATCC 14028; assay: MIC and MBC measurement; assay type: cell-based; settings: Salmonella enterica
Procedure: as §1, §2, §3

[3] = system: Escherichia coli ATCC 25922; assay: Sensitization to erythromycin, novobiocin or rifampicin (permeabilization, FIC); settings: for FIC / concentration required for bacterial growth inhibition: Table 13, with rifampicin (order of b151), Escherichia coli ATCC 25922
Procedure: (§7) FICs can be performed by checkerboard titrations of compounds in one dimension of a microtiter plate, and of antibiotics in the other dimension, for example. The FIC is calculated by looking at the impact of one antibiotic on the MIC of the other and vice versa. […] As used herein, FIC can be determined as follows: FIC = (MIC(compound in combination))/(MIC(compound alone)) + (MIC(antibiotic in combination))/(MIC(antibiotic alone)) [formula]
(§8) Concentrations of 0.5, 1.0 or 3.0 µg/mL of these antibiotics were used, and the concentrations of the cholic acid derivatives required to inhibit bacterial growth of Gram-negative strains were determined.

[4] = system: Escherichia coli ATCC 25922; settings: ATCC25922
Procedure: as §7, §8

[5] = system: Staphylococcus aureus ATCC 25923; assay: MIC and MBC measurement; assay type: cell-based; settings: ATCC25923, Table 10, Staphylococcus aureus ATCC 25923; for MIC: read-out: MIC
Excerpt: (§4) General: Microorganisms. Reference strains were purchased from the American Type Culture Collection (Rockville, MD) or Bactrol disks from Difeo Laboratories (Detroit, MI). The following specific ATCC strains were used: 10798 Escherichia coli, 25922 Escherichia coli, 13883 Klebsiella pneumoniae, 27853 Pseudomonas aeruginosa, 14028 Salmonella typhimurium, 29212 Enterococcus faecalis, 25923 Staphylococcus aureus, 19615 Streptococcus pyogenes, and 90028 Candida albicans. Bacterial strains were maintained on Mueller-Hinton agar plates, and Candida albicans was maintained on Sabouraud Dextrose agar plates.
(§5) Tryptic soy broth (TSB) was made by dissolving 27.5 grams of tryptic soy broth without dextrose (DIFCO Laboratories) in 1 liter of deionized water and sterilizing at 121 °C for 15 minutes. Solid agar (TSA) plates were made by dissolving 6.4 grams of tryptic soy broth and 12 grams of agar (purified grade, Fischer Scientific) in 800 mL of deionized water and sterilizing at 121 °C for 20 minutes. Aliquots (20 mL) of the homogeneous solution were then poured in sterile plastic petri dishes (100 x 15 mm, Fisher Scientific). Solutions of compounds were made by dissolving the HCl salt of the respective compound into an appropriate amount of deionized and sterilized water followed by microfiltration.
(§6) Aliquots of 1 mL of the suspension were added to test tubes containing 1 mL TSB and incrementally varied concentrations of cholic acid derivatives and/or erythromycin or novobiocin. In the sensitization experiments, erythromycin or novobiocin were added 15 minutes later than the cholic acid derivatives. The samples were subjected to stationary incubation at 37°C for 24 hours. Sample turbidity was determined by measuring absorption at 760 nm (HP 8453 UV-Visible Chemstation, Hewlett Packard). Additionally, an alliquot from each of the samples showing no measurable turbidity was subcultured on TSA plates (alliquots were diluted to provide fewer than 300 CFU). Colonies that grew on the subculture after overnight incubation were counted and the number of CFU/mL in the samples were calculated. The calculated values were compared to the number of CFU/mL in the original inoculum. […]

[6] = system: Escherichia coli ATCC 25922; assay: MIC and MBC measurement; assay type: cell-based; settings: Escherichia coli; for MIC: read-out: MIC
Excerpt: as §4, §5, §6

[7] = Minimum hemolytic concentration (MHC); assay type: cell-based; settings: Table 10
Procedure: Minimum inhibition concentrations (MIC) and minimum hemolytic concentrations (MHC) were measured as described in Li et al., Antimicrob. Agents. Chemother., 1999, 43, 1347. […]

E. coli (ATCC 10798) [8] = assay: Sensitization to erythromycin or novobiocin (outer membrane permeabilization, FIC); assay type: cell-based, Escherichia coli; settings: for MBC: Escherichia coli
Procedure: FICs can be performed by checkerboard titrations of compounds in one dimension of a microtiter plate, and of antibiotics in the other dimension, for example. The FIC is calculated by looking at the impact of one antibiotic on the MIC of the other and vice versa. […] Preferably, an FIC of less than 0.5 is obtained for synergism. As used herein, FIC can be determined as follows: FIC = (MIC(compound in combination))/(MIC(compound alone)) + (MIC(antibiotic in combination))/(MIC(antibiotic alone)) [formula]
Aliquots of 1 mL of the suspension were added to test tubes containing 1 mL TSB and incrementally varied concentrations of cholic acid derivatives and/or erythromycin or novobiocin. In the sensitization experiments, erythromycin or novobiocin were added 15 minutes later than the cholic acid derivatives. The samples were subjected to stationary incubation at 37°C for 24 hours. Sample turbidity was determined by measuring absorption at 760 nm (HP 8453 UV-Visible Chemstation, Hewlett Packard). Additionally, an alliquot from each of the samples showing no measurable turbidity was subcultured on TSA plates (alliquots were diluted to provide fewer than 300 CFU). Colonies that grew on the subculture after overnight incubation were counted and the number of CFU/mL in the samples were calculated. The calculated values were compared to the number of CFU/mL in the original inoculum.
They were also tested for the ability to permeabilize the outer membrane of Gram-negative bacteria, causing sensitization to hydrophobic antibiotics that cannot cross the outer membrane. The permeabilization of the outer membrane was measured using erythromycin and novobiocin.

[9] = system: Enterococcus faeculis ATCC 29212; assay: MIC and MBC measurement; assay type: cell-based, Enterococcus faecalis; settings: ATCC29212
Procedure: as §1, §2, §3

E. coli (ATCC 10798) [10] = assay: MIC and MBC measurement; assay type: cell-based, Escherichia coli; settings: ATCC10798; for MBC: read-out: MBC; for MIC: read-out: MIC
Procedure: as §1, §2, §3

[11] = system: Klebsiella pneumonia ATCC 13883; assay: Sensitization to erythromycin, novobiocin or rifampicin (permeabilization, FIC); assay type: cell-based, Klebsiella pneumoniae
[12] = ATCC25922, Table 4, E. coli (ATCC 25922)
[13] = ATCC25922, Table 10, Escherichia coli ATCC 25922
[14] = Escherichia coli, Table 1, E. coli (ATCC 10798)
[15] = Table 12, with novobiocin (order of b151), Klebsiella pneumonia ATCC 13883
[16] = Table 13, with rifampicin (order of b151), Klebsiella pneumonia ATCC 13883
[17] = Table 9, Escherichia coli (ATCC 10798)

C[C@H](CCCN(C)Cc1ccccc1)[C@H]1CC[C@H]2[C@@H]3[C@H](OCCCN)C[C@@H]4C[C@H](OCCCN)CC[C@]4(C)[C@H]3C[C@H](OCCCN)[C@]12C [Compound 2]
MBC [1]: 42 µg/mL (≈ 62.8 µM)
MIC [1]: 30 µg/mL (≈ 44.8 µM)
MBC [2]: 16 µg/mL (≈ 23.9 µM)
MIC [2]: 13 µg/mL (≈ 19.4 µM)
MBC ([3]; Escherichia coli, ATCC25922): 5 µg/mL
concentration required to lower the MIC of erythromycin from 60 µg/mL to 1 µg/mL ([3]; Table 5, E. coli (ATCC 25922), with erythromycin): 1 µg/mL
FIC [3]: 0.22
concentration required for bacterial growth inhibition [3]: 0.80 µg/mL
concentration required for bacterial growth inhibition [4]: 0.33 µg/mL
MBC [5]: 4.7 µg/mL (≈ 7.02 µM)
MIC [5]: 1 µg/mL (≈ 1.49 µM)
MBC [6, 12]: 20 µg/mL (≈ 29.9 µM)
MIC [6, 12]: 10 µg/mL (≈ 14.9 µM)
MBC [6, 13]: 6.8 µg/mL (≈ 10.2 µM)
MIC [6, 13]: 5.1 µg/mL (≈ 7.62 µM)
MHC [7]: 58 µg/mL
MBC (E. coli (ATCC 10798) [8]; ATCC10798, Table 2, E. coli (ATCC 10798), with erythromycin): 10 µg/mL
MBC (E. coli (ATCC 10798) [8]; ATCC10798, Table 3, E. coli (ATCC 10798), with novobiocin): 16 µg/mL
concentration required to lower the MIC of erythromycin from 70 µg/mL to 1 µg/mL (E. coli (ATCC 10798) [8]; Table 2, E. coli (ATCC 10798), with erythromycin): 1 µg/mL
MBC [9]: 19 µg/mL (≈ 28.4 µM)
MIC [9]: 3.4 µg/mL (≈ 5.08 µM)
MBC (E. coli (ATCC 10798) [10]; [14]): 16 µg/mL (≈ 23.9 µM)
MIC (E. coli (ATCC 10798) [10]; [14]): 7 µg/mL (≈ 10.5 µM)
FIC ([11]; ATCC13883): 0.048
concentration required for bacterial growth inhibition ([11]; ATCC13883): 0.25 µg/mL
concentration required for bacterial growth inhibition [11, 15]: 0.49 µg/mL
FIC [11, 16]: 0.035
concentration required for bacterial growth inhibition [11, 16]: 0.12 µg/mL

CCCOCCC[C@@H](C)[C@H]1CC[C@H]2[C@@H]3[C@H](OCCCN)C[C@@H]4C[C@H](OCCCN)CC[C@]4(C)[C@H]3C[C@H](OCCCN)[C@]12C [Compound 112]
MBC [1]: 45 µg/mL (≈ 74 µM)
MIC [1]: 41 µg/mL (≈ 67.4 µM)
MBC [2]: 90 µg/mL (≈ 148 µM)
MIC [2]: 86 µg/mL (≈ 141 µM)
FIC [3]: 0.19
concentration required for bacterial growth inhibition [3]: 0.81 µg/mL
concentration required for bacterial growth inhibition [4]: 0.40 µg/mL
MBC [5]: 4.2 µg/mL (≈ 6.91 µM)
MIC [5]: 0.55 µg/mL (≈ 0.905 µM)
MBC [6, 13]: 7.4 µg/mL (≈ 12.2 µM)
MIC [6, 13]: 6.6 µg/mL (≈ 10.9 µM)
MHC [7]: 5.9 µg/mL
(a) Concentration required to lower the MIC of erythromycin from 70 to 1 µg/mL (E. coli (ATCC 10798) [8]; [17]): 0.4 µg/mL
(b) MBC with 1 µg/mL erythromycin (E. coli (ATCC 10798) [8]; [17]): 4.0 µg/mL
(d) Concentration required to lower the MIC of novobiocin from >500 to 1 µg/mL (E. coli (ATCC 10798) [8]; [17]): 0.8 µg/mL
FIC^c (FIC values with erythromycin) (E. coli (ATCC 10798) [8]; [17]): 0.048
FIC^c (FIC values with novobiocin) (E. coli (ATCC 10798) [8]; [17]): 0.085
MBC [9]: 4.7 µg/mL (≈ 7.73 µM)
MIC [9]: 3.1 µg/mL (≈ 5.1 µM)
MBC (E. coli (ATCC 10798) [10]; [17]): 17 µg/mL (≈ 28 µM)
MIC (E. coli (ATCC 10798) [10]; [17]): 12 µg/mL (≈ 19.7 µM)
FIC ([11]; ATCC13883): 0.035
concentration required for bacterial growth inhibition ([11]; ATCC13883): 0.1 µg/mL
concentration required for bacterial growth inhibition [11, 15]: 0.19 µg/mL
FIC [11, 16]: 0.031
concentration required for bacterial growth inhibition [11, 16]: 0.11 µg/mL
